Assay results published in patent US20190364896A1, “SYNERGISTIC WEED CONTROL FROM APPLICATIONS OF PYRIDINE CARBOXYLIC ACID HERBICIDES AND ALS INHIBITORS” (Dow AgroSciences LLC, priority 2014, published 2019).
Values joined by “and” are separate entries in the source; they are usually repeats but may differ in a detail not shown here. Equal values may be shown once. Read-outs that look alike come from different tables or passages of the source.

How the values were obtained:
Experiment in all cases: Postemergence herbicidal activity, greenhouse trial (visual injury 0-100%)
Format in all cases: in vivo
[1] = test system: nutsedge (Cyperus esculentus, CYPES)
Outline: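 Greenhouse-grown plants at the second to third true leaf stage were sprayed with two-way mixtures in 1.5% v/v Agri-dex crop oil concentrate at 187 L/ha; rates in g ae/ha for component (a) and g ai/ha for component (b). Injury scored visually 0–100% versus solvent-blank controls after 20–22 d, with expected mixture effects from Colby's equation.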

[2] = test system: wild oat (Avena fatua, AVEFA)
Outline: (§1)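 Foliar track-sprayer application, 187 L/ha, 2–3 true-leaf plants; spray solution = acetone/DMSO 97:3 stock diluted into 1.5% v/v Agri-dex. Component (a) in g ae/ha, (b) in g ai/ha. Visual rating 0 (no injury)–100 (complete kill) at 20-22 d vs solvent blank.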

[3] = test system: chickweed (Stellaria media, STEME); conditions: Stellaria media, post-emergence, read-out: % visual injury Obs
Outline: as §1

[4] = test system: pigweed (Amaranthus retroflexus, AMARE); conditions: Amaranthus retroflexus, post-emergence, read-out: % visual injury Obs
Outline: as §1

[5] = test system: velvetleaf (Abutilon theophrasti, ABUTH)
[6] = test system: sunflower (Helianthus annuus, HELAN)

## Nc1c(F)c(-c2ccc3cc[nH]c3c2F)nc(C(=O)O)c1Cl [Compound 1]
[1]; CYPES, Compound 1 5 g ae/ha
  % visual injury Obs: 10%
[1]; Cyperus, post-emergence, 5 g ae/ha, read-out: % visual injury Obs
  pest or weed control at 5 g/ha: 10%
[2]; 5 g ae/ha
  % visual injury Obs: 0%
[2]; 10 g ae/ha
  % visual injury Obs: 0%
[3]; 5 g ae/ha
  pest or weed control at 5 g/ha: 50%
[3]; 10 g ae/ha
  pest or weed control at 10 g/ha: 70%
[3]; STEME, Compound 1 5 g ae/ha
  pest or weed control at 5 g/ha: 70%
[3]; STEME, Compound 1 10 g ae/ha
  pest or weed control at 10 g/ha: 70%
[4]; 5 g ae/ha
  pest or weed control at 5 g/ha: 95%
[4]; 10 g ae/ha
  pest or weed control at 10 g/ha: 97%
[4]; AMARE, Compound 1 5 g ae/ha
  pest or weed control at 5 g/ha: 75%
[4]; AMARE, Compound 1 10 g ae/ha
  pest or weed control at 10 g/ha: 97%
[5]; 5 g ae/ha
  % visual injury Obs: 50% and 70%
[5]; 10 g ae/ha
  % visual injury Obs: 60%
[5]; ABUTH, Compound 1 5 g ae/ha
  % visual injury Obs: 70%
[6]; 5 g ae/ha
  % visual injury Obs: 90%
[6]; 10 g ae/ha
  % visual injury Obs: 90%
[6]; HELAN, Compound 1 5 g ae/ha
  % visual injury Obs: 70%

## CCCOc1nn(C(=O)NS(=O)(=O)c2ccccc2C(=O)OC)c(=O)n1C [Propoxycarbazone, propoxycarbazone]
[1]; Cyperus, post-emergence, 7.5 g ai/ha, read-out: % visual injury Obs
  pest or weed control at […]: 75%
[2]; 7.5 g ai/ha
  % visual injury Obs: 85%
[3]; 7.5 g ai/ha
  pest or weed control at […]: 50%
[5]; 7.5 g ai/ha
  % visual injury Obs: 50%
[6]; 7.5 g ai/ha
  % visual injury Obs: 85%
